{"source": "patent US20070225492A1", "about": "(priority 2004, published 2007)", "note": "Structures can show the parent of a compound that is named as a salt."}
{"smiles": "CCC(=O)N1CC2CC(C1)N2C/C=C(\\C)c1ccccc1", "note": "(as salt: hydrochloride)", "values": [{"measurement": "melting point", "result": "123 to 125", "unit": "°C"}]}
{"smiles": "CCC(=O)N1CC2CC(C1)N2C/C=C(\\CC)c1ccccc1", "note": "(as salt: hydrochloride)", "values": [{"measurement": "melting point", "result": "160 to 163", "unit": "°C"}]}
